Publication PMC9718795, “Caffeic acid N-[3,5-bis(trifluoromethyl)phenyl] amide as a non-steroidal inhibitor for steroid 5α-reductase type 1 using a human keratinocyte cell-based assay and molecular dynamics” (Scientific Reports, 2022)

Assays:
HaCaTs-produced SRD5A1 = molecular target: T1, HaCaTs-produced SRD5A1 (Homo sapiens, UniProt P18405); assay: Whole-cell-based kinetic study of HaCaT-produced SRD5A1 with HPTLC; parameters: Apparent Vmax: unit not given here; conditions: 12 h
T1 construct: HaCaTs-produced SRD5A1 smoothly converted testosterone to DHT; endogenous in cells; host or cells: HaCaT human keratinocytes
T1 sequence (P18405 1-259): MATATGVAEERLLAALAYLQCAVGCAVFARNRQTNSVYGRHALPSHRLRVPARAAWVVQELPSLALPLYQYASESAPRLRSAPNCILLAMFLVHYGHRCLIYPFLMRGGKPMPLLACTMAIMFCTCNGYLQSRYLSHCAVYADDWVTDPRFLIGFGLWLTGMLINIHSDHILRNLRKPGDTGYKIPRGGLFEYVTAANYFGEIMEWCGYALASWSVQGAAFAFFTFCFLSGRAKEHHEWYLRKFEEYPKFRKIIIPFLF
Method: The in vitro whole HaCaT cell-based assay for the kinetic inhibition against SRD5A1 included culturing the cells for 48 h, treating the cells with testosterone and compound 4 for 12 h and evaluating the % intensity of DHT and cell viability using HPTLC analysis and MTT assay, respectively. The HaCaT cells were seeded and incubated as same as the method shown in 3.8. For the evaluation of dose-dependent activity of testosterone, the different concentration of testosterone (0 − 50 μM) and DMEM with 0.1% DMSO were added. […] DMEM with 0.1% DMSO was used as negative control. Then, the cells were incubated for 12 h. The collection of cell culture medium, extraction process, sample preparation and HPTLC detection were prepared by the method mentioned above (3.8). The obtaining chromatogram was visualized by CAMAG HPTLC Software vision CATS and analyzed by Image J software. The percentage of DHT intensity was calculated based on the intensity of DHT normalized by the standard of DHT at 100 μM. At the same time, the cell viability of the treated cells was assessed by the MTT assay. Each experiment was repeated in triplicate.

[1] = In vitro cytotoxic MTT assay against HaCaT cells; type: cell-based, human; conditions: human, HaCaT cells (human keratinocytes), read-out: Cytotoxicity IC50 against HaCaTs
Method: The cytotoxicity of caffeic acid and its amide derivatives were evaluated with two cell lines, human keratinocyte (HaCaT) and DP cells, using the common cell viability assay with MTT. HaCaT and DP cells were seeded at 1 × 10^4 cell/well in 96-well plates in a complete DMEM medium, incubated overnight, and treated with test compounds at 0–50 µM for 24 h. The stock solutions of all the test compounds were prepared in DMSO. Each compound was serially diluted in DMEM to achieve concentrations at 0.5–50 µM; DMEM was used as the negative control. After 24 h of treatment, the culture medium was removed, and cell viability was determined by adding 100 µL of 0.5 mg/mL MTT at 37 °C in darkness for 3 h. After removing the MTT solution, 100 µL of DMSO was added to each well to dissolve the purple formazan crystals. The absorbance was measured at 570 nm using a microplate reader, and the IC50 value was calculated. Each experiment was performed in triplicates.

O=C(C=Cc1ccc(O)c(O)c1)Nc1cc(C(F)(F)F)cc(C(F)(F)F)c1 [Compound 4, 3-(3,4-dihydroxyphenyl)-N-[3,5-bis (trifluoromethyl)phenyl]-2-propenamide]
Apparent Vmax (HaCaTs-produced SRD5A1; compound 4 0.2 µM): 96.08
Apparent Vmax (HaCaTs-produced SRD5A1; compound 4 0.5 µM): 76.27
Apparent Vmax (HaCaTs-produced SRD5A1; compound 4 1.0 µM): 74.06
Apparent Vmax (HaCaTs-produced SRD5A1; compound 4 2.5 µM): 69.85
Ki (HaCaTs-produced SRD5A1; mixed-model inhibition analysis, non-linear): 2.38 µM
% DHT intensity ± S.D. (HaCaTs-produced SRD5A1; testosterone 1 µM, compound 4 0.2 µM): 0.83 ± 0.219%
% DHT intensity ± S.D. (HaCaTs-produced SRD5A1; testosterone 1 µM, compound 4 0.5 µM): 0.70 ± 0.16%
% DHT intensity ± S.D. (HaCaTs-produced SRD5A1; testosterone 1 µM, compound 4 1.0 µM): 0.12 ± 0.01%
% DHT intensity ± S.D. (HaCaTs-produced SRD5A1; testosterone 1 µM, compound 4 2.5 µM): 0.13 ± 0.03%
% DHT intensity ± S.D. (HaCaTs-produced SRD5A1; testosterone 5 µM, compound 4 0.2 µM): 29.00 ± 1.829%
% DHT intensity ± S.D. (HaCaTs-produced SRD5A1; testosterone 5 µM, compound 4 0.5 µM): 44.57 ± 9.66%
% DHT intensity ± S.D. (HaCaTs-produced SRD5A1; testosterone 5 µM, compound 4 1.0 µM): 34.49 ± 3.82%
% DHT intensity ± S.D. (HaCaTs-produced SRD5A1; testosterone 5 µM, compound 4 2.5 µM): 0.31 ± 0.04%
% DHT intensity ± S.D. (HaCaTs-produced SRD5A1; testosterone 10 µM, compound 4 0.2 µM): 48.11 ± 5.339%
% DHT intensity ± S.D. (HaCaTs-produced SRD5A1; testosterone 10 µM, compound 4 0.5 µM): 23.04 ± 2.83%
% DHT intensity ± S.D. (HaCaTs-produced SRD5A1; testosterone 10 µM, compound 4 1.0 µM): 27.21 ± 2.98%
% DHT intensity ± S.D. (HaCaTs-produced SRD5A1; testosterone 10 µM, compound 4 2.5 µM): 30.48 ± 5.08%
% DHT intensity ± S.D. (HaCaTs-produced SRD5A1; testosterone 25 µM, compound 4 0.2 µM): 86.19 ± 4.08%
% DHT intensity ± S.D. (HaCaTs-produced SRD5A1; testosterone 25 µM, compound 4 0.5 µM): 71.91 ± 2.00%
% DHT intensity ± S.D. (HaCaTs-produced SRD5A1; testosterone 25 µM, compound 4 1.0 µM): 68.49 ± 0.95%
% DHT intensity ± S.D. (HaCaTs-produced SRD5A1; testosterone 25 µM, compound 4 2.5 µM): 46.20 ± 0.91%
% DHT intensity ± S.D. (HaCaTs-produced SRD5A1; testosterone 50 µM, compound 4 0.2 µM): 90.49 ±10.32%
% DHT intensity ± S.D. (HaCaTs-produced SRD5A1; testosterone 50 µM, compound 4 0.5 µM): 72.72 ± 12.38%
% DHT intensity ± S.D. (HaCaTs-produced SRD5A1; testosterone 50 µM, compound 4 1.0 µM): 65.61 ± 2.06%
% DHT intensity ± S.D. (HaCaTs-produced SRD5A1; testosterone 50 µM, compound 4 2.5 µM): 55.01 ± 2.40%
Mode of SRD5A1 inhibition (HaCaTs-produced SRD5A1; whole-cell): mixed inhibition
IC50 at 24 h [1]: 30 ± 8.69 µM
